Test results as given in US5620958A, “Bradykinin antagonists” (Coretech, Inc., priority 1994, dated 1997).
Peptide text beside a SMILES is read from it.

What was measured:
NK1 receptor = target: T1, NK1 receptor (Cavia porcellus, UniProt P30547); assay: guinea pig ileum assay of NK1 receptor activity against substance P; type: cell-based; conditions: Table O; for Kb: read-out: NK1 : GPI pA2 (± s.e.m.) (converted)
T1 construct: a standard guinea pig ileum assay of NK1 receptor activity; from tissue; host or cells: guinea pig ileum
Source text: In order to illustrate the potential of blocking two different receptor populations with a single compound a consensus NK1 receptor antagonist (DArg-DPro-Lys-Pro-Gln-Asn-DPhe-Phe-DTrp-Leu-Nle) was synthesized. […] Once the activity of this reference ligand was established, a series of lysine containing monomers formed by the systematic substitution of a lysine residue sequentially through the reference peptide was synthesized.

BK2 receptor = target: T2, BK2 receptor (Rattus norvegicus, UniProt P25023); assay: cell-based
T2 sequence (P25023 1-396): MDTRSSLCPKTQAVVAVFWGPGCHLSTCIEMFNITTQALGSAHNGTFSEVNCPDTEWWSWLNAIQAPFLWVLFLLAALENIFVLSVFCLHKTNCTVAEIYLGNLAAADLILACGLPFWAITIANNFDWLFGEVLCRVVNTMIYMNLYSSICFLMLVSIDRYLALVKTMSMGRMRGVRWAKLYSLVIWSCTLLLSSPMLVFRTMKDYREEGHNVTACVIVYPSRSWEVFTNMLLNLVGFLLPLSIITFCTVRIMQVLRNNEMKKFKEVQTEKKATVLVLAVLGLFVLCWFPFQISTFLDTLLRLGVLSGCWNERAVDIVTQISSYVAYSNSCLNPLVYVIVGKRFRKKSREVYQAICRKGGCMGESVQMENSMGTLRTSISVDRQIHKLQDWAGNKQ

T1 sequence (P30547 whole entry): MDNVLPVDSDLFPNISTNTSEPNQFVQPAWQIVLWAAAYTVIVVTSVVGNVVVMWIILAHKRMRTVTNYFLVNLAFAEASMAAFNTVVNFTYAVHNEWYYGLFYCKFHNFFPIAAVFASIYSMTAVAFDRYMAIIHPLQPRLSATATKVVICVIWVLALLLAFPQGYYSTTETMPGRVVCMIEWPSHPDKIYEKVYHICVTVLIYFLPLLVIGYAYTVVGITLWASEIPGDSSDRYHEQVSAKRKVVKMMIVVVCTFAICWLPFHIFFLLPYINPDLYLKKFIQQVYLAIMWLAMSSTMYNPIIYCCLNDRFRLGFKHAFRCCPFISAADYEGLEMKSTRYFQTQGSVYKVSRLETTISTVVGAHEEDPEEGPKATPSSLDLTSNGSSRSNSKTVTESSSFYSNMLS

Structure (SMILES)	Kb (NK1 receptor)	Kb (BK2 receptor)	NK1 : GPI pA2 (± s.e.m.) (NK1 receptor)
CCCC[C@H](NC(=O)[C@H](CC(C)C)NC(=O)[C@@H](Cc1c[nH]c2ccccc12)NC(=O)[C@H](Cc1ccccc1)NC(=O)[C@@H](Cc1ccccc1)NC(=O)[C@H](CC(N)=O)NC(=O)[C@H](CCC(N)=O)NC(=O)[C@@H]1CCCN1C(=O)[C@H](CCCCN)NC(=O)[C@H](CCCCNC(=O)CCCCCN1C(=O)CC(SC[C@H](NC(=O)[C@H](Cc2ccccc2)NC(=O)CNC(=O)[C@@H]2C[C@@H](O)CN2C(=O)[C@@H]2CCCN2C(=O)[C@H](CCCNC(=N)N)NC(=O)[C@H](N)CCCNC(=N)N)C(=O)N[C@H](Cc2ccccc2)C(=O)N[C@@H](CC(C)C)C(=O)N[C@@H](CCCNC(=N)N)C(=O)O)C1=O)NC(=O)[C@H](N)CCCNC(=N)N)C(N)=O (stereo partly shown) [CP-0391] (HELM PEPTIDE1{[dR].K.K.P.Q.N.[dF].F.[dW].L.[Nle].[am]}|PEPTIDE2{[dR].R.P.[Hyp].G.F.C.[dF].L.R}|CHEM1{[O=C1CC([*:2])C(=O)N1CCCCCC(=O)[*:1]]}$PEPTIDE1,CHEM1,2:R3-1:R1|PEPTIDE2,CHEM1,7:R3-1:R2$$$V2.0)	10000 nM	79.4 nM	–
CCCC[C@H](NC(=O)[C@H](CC(C)C)NC(=O)[C@@H](Cc1c[nH]c2ccccc12)NC(=O)[C@H](Cc1ccccc1)NC(=O)[C@@H](Cc1ccccc1)NC(=O)[C@H](CC(N)=O)NC(=O)[C@H](CCC(N)=O)NC(=O)[C@H](CCCCNC(=O)CCCCCN1C(=O)CC(SC[C@H](NC(=O)[C@H](Cc2ccccc2)NC(=O)CNC(=O)[C@@H]2C[C@@H](O)CN2C(=O)[C@@H]2CCCN2C(=O)[C@H](CCCNC(=N)N)NC(=O)[C@H](N)CCCNC(=N)N)C(=O)N[C@H](Cc2ccccc2)C(=O)N[C@@H](CC(C)C)C(=O)N[C@@H](CCCNC(=N)N)C(=O)O)C1=O)NC(=O)[C@H](CCCCN)NC(=O)[C@H]1CCCN1C(=O)[C@H](N)CCCNC(=N)N)C(N)=O (stereo partly shown) [CP-0393] (HELM PEPTIDE1{[dR].[dP].K.K.Q.N.[dF].F.[dW].L.[Nle].[am]}|PEPTIDE2{[dR].R.P.[Hyp].G.F.C.[dF].L.R}|CHEM1{[O=C1CC([*:2])C(=O)N1CCCCCC(=O)[*:1]]}$PEPTIDE1,CHEM1,4:R3-1:R1|PEPTIDE2,CHEM1,7:R3-1:R2$$$V2.0)	3160 nM	39.8 nM	–
CCCC[C@H](NC(=O)[C@H](CC(C)C)NC(=O)[C@@H](Cc1c[nH]c2ccccc12)NC(=O)[C@H](Cc1ccccc1)NC(=O)[C@@H](Cc1ccccc1)NC(=O)[C@H](CCCCNC(=O)CCCCCN1C(=O)CC(SC[C@H](NC(=O)[C@H](Cc2ccccc2)NC(=O)CNC(=O)[C@@H]2C[C@@H](O)CN2C(=O)[C@@H]2CCCN2C(=O)[C@H](CCCNC(=N)N)NC(=O)[C@H](N)CCCNC(=N)N)C(=O)N[C@H](Cc2ccccc2)C(=O)N[C@@H](CC(C)C)C(=O)N[C@@H](CCCNC(=N)N)C(=O)O)C1=O)NC(=O)[C@H](CCC(N)=O)NC(=O)[C@@H]1CCCN1C(=O)[C@H](CCCCN)NC(=O)[C@H]1CCCN1C(=O)[C@H](N)CCCNC(=N)N)C(N)=O (stereo partly shown) [CP-0395] (HELM PEPTIDE1{[dR].[dP].K.P.Q.K.[dF].F.[dW].L.[Nle].[am]}|PEPTIDE2{[dR].R.P.[Hyp].G.F.C.[dF].L.R}|CHEM1{[O=C1CC([*:2])C(=O)N1CCCCCC(=O)[*:1]]}$PEPTIDE1,CHEM1,6:R3-1:R1|PEPTIDE2,CHEM1,7:R3-1:R2$$$V2.0)	501 nM	50.1 nM	–
CCCC[C@H](NC(=O)[C@H](CC(C)C)NC(=O)[C@@H](Cc1c[nH]c2ccccc12)NC(=O)[C@H](CCCCNC(=O)CCCCCN1C(=O)CC(SC[C@H](NC(=O)[C@H](Cc2ccccc2)NC(=O)CNC(=O)[C@@H]2C[C@@H](O)CN2C(=O)[C@@H]2CCCN2C(=O)[C@H](CCCNC(=N)N)NC(=O)[C@H](N)CCCNC(=N)N)C(=O)N[C@H](Cc2ccccc2)C(=O)N[C@@H](CC(C)C)C(=O)N[C@@H](CCCNC(=N)N)C(=O)O)C1=O)NC(=O)[C@@H](Cc1ccccc1)NC(=O)[C@H](CC(N)=O)NC(=O)[C@H](CCC(N)=O)NC(=O)[C@@H]1CCCN1C(=O)[C@H](CCCCN)NC(=O)[C@H]1CCCN1C(=O)[C@H](N)CCCNC(=N)N)C(N)=O (stereo partly shown) [CP-0397] (HELM PEPTIDE1{[dR].[dP].K.P.Q.N.[dF].K.[dW].L.[Nle].[am]}|PEPTIDE2{[dR].R.P.[Hyp].G.F.C.[dF].L.R}|CHEM1{[O=C1CC([*:2])C(=O)N1CCCCCC(=O)[*:1]]}$PEPTIDE1,CHEM1,8:R3-1:R1|PEPTIDE2,CHEM1,7:R3-1:R2$$$V2.0)	–	20 nM	Inactive
CCCC[C@H](NC(=O)[C@H](CC(C)C)NC(=O)[C@@H](Cc1c[nH]c2ccccc12)NC(=O)[C@H](Cc1ccccc1)NC(=O)[C@@H](Cc1ccccc1)NC(=O)[C@H](CC(N)=O)NC(=O)[C@H](CCC(N)=O)NC(=O)[C@@H]1CCCN1C(=O)[C@H](CCCCN)NC(=O)[C@H]1CCCN1C(=O)[C@@H](N)CCCCNC(=O)CCCCCN1C(=O)CC(SC[C@H](NC(=O)[C@H](Cc2ccccc2)NC(=O)CNC(=O)[C@@H]2C[C@@H](O)CN2C(=O)[C@@H]2CCCN2C(=O)[C@H](CCCNC(=N)N)NC(=O)[C@H](N)CCCNC(=N)N)C(=O)N[C@H](Cc2ccccc2)C(=O)N[C@@H](CC(C)C)C(=O)N[C@@H](CCCNC(=N)N)C(=O)O)C1=O)C(N)=O (stereo partly shown) [CP-0390] (HELM PEPTIDE1{K.[dP].K.P.Q.N.[dF].F.[dW].L.[Nle].[am]}|PEPTIDE2{[dR].R.P.[Hyp].G.F.C.[dF].L.R}|CHEM1{[O=C1CC([*:2])C(=O)N1CCCCCC(=O)[*:1]]}$PEPTIDE1,CHEM1,1:R3-1:R1|PEPTIDE2,CHEM1,7:R3-1:R2$$$V2.0)	15800 nM	63.1 nM	–
CCCC[C@H](NC(=O)[C@H](CC(C)C)NC(=O)[C@@H](Cc1c[nH]c2ccccc12)NC(=O)[C@H](Cc1ccccc1)NC(=O)[C@@H](Cc1ccccc1)NC(=O)[C@H](CC(N)=O)NC(=O)[C@H](CCCCNC(=O)CCCCCN1C(=O)CC(SC[C@H](NC(=O)[C@H](Cc2ccccc2)NC(=O)CNC(=O)[C@@H]2C[C@@H](O)CN2C(=O)[C@@H]2CCCN2C(=O)[C@H](CCCNC(=N)N)NC(=O)[C@H](N)CCCNC(=N)N)C(=O)N[C@H](Cc2ccccc2)C(=O)N[C@@H](CC(C)C)C(=O)N[C@@H](CCCNC(=N)N)C(=O)O)C1=O)NC(=O)[C@@H]1CCCN1C(=O)[C@H](CCCCN)NC(=O)[C@H]1CCCN1C(=O)[C@H](N)CCCNC(=N)N)C(N)=O (stereo partly shown) [CP-0394] (HELM PEPTIDE1{[dR].[dP].K.P.K.N.[dF].F.[dW].L.[Nle].[am]}|PEPTIDE2{[dR].R.P.[Hyp].G.F.C.[dF].L.R}|CHEM1{[O=C1CC([*:2])C(=O)N1CCCCCC(=O)[*:1]]}$PEPTIDE1,CHEM1,5:R3-1:R1|PEPTIDE2,CHEM1,7:R3-1:R2$$$V2.0)	1580 nM	12.6 nM	–
CCCC[C@H](NC(=O)[C@H](CC(C)C)NC(=O)[C@@H](Cc1c[nH]c2ccccc12)NC(=O)[C@H](Cc1ccccc1)NC(=O)[C@@H](Cc1ccccc1)NC(=O)[C@H](CC(N)=O)NC(=O)[C@H](CCC(N)=O)NC(=O)[C@@H]1CCCN1C(=O)[C@H](CCCCNC(=O)CCCCCN1C(=O)CC(SC[C@H](NC(=O)[C@H](Cc2ccccc2)NC(=O)CNC(=O)[C@@H]2C[C@@H](O)CN2C(=O)[C@@H]2CCCN2C(=O)[C@H](CCCNC(=N)N)NC(=O)[C@H](N)CCCNC(=N)N)C(=O)N[C@H](Cc2ccccc2)C(=O)N[C@@H](CC(C)C)C(=O)N[C@@H](CCCNC(=N)N)C(=O)O)C1=O)NC(=O)[C@H]1CCCN1C(=O)[C@H](N)CCCNC(=N)N)C(N)=O (stereo partly shown) [CP-0392] (HELM PEPTIDE1{[dR].[dP].K.P.Q.N.[dF].F.[dW].L.[Nle].[am]}|PEPTIDE2{[dR].R.P.[Hyp].G.F.C.[dF].L.R}|CHEM1{[O=C1CC([*:2])C(=O)N1CCCCCC(=O)[*:1]]}$PEPTIDE1,CHEM1,3:R3-1:R1|PEPTIDE2,CHEM1,7:R3-1:R2$$$V2.0)	5010 nM	100 nM	–
CCCC[C@H](NC(=O)[C@H](CCCCNC(=O)CCCCCN1C(=O)CC(SC[C@H](NC(=O)[C@H](Cc2ccccc2)NC(=O)CNC(=O)[C@@H]2C[C@@H](O)CN2C(=O)[C@@H]2CCCN2C(=O)[C@H](CCCNC(=N)N)NC(=O)[C@H](N)CCCNC(=N)N)C(=O)N[C@H](Cc2ccccc2)C(=O)N[C@@H](CC(C)C)C(=O)N[C@@H](CCCNC(=N)N)C(=O)O)C1=O)NC(=O)[C@@H](Cc1c[nH]c2ccccc12)NC(=O)[C@H](Cc1ccccc1)NC(=O)[C@@H](Cc1ccccc1)NC(=O)[C@H](CC(N)=O)NC(=O)[C@H](CCC(N)=O)NC(=O)[C@@H]1CCCN1C(=O)[C@H](CCCCN)NC(=O)[C@H]1CCCN1C(=O)[C@H](N)CCCNC(=N)N)C(N)=O (stereo partly shown) [CP-0399] (HELM PEPTIDE1{[dR].[dP].K.P.Q.N.[dF].F.[dW].K.[Nle].[am]}|PEPTIDE2{[dR].R.P.[Hyp].G.F.C.[dF].L.R}|CHEM1{[O=C1CC([*:2])C(=O)N1CCCCCC(=O)[*:1]]}$PEPTIDE1,CHEM1,10:R3-1:R1|PEPTIDE2,CHEM1,7:R3-1:R2$$$V2.0)	12600 nM	39.8 nM	–
